We go through two compounds from paper PMC6597960 (Journal of Alzheimer's Disease Reports, 2019).

Peptide text beside a SMILES is read from it.

The test system of data set [1] is SH-SY5Y neuroblastoma cell line. The data set can be described thus: Cell cytotoxicity assay. In kind it is cell-based. The note with it: up to a concentration of 20 μM; 72 h; CellTiterGlo.
A further data set deals with APPSWE/Tg2576 mice. The data set can be described thus: Efficacy in 5-month-old AD model mice: Y-maze spontaneous alternation. The data set is classed as in vivo, mouse. The following applies: 5-month-old mice, 100 μg s.c. biweekly for 5 months, n = 12.

Take `C[C@H](O)[C@@H](NC(=O)[C@@H](Cc1c[nH]c2ccccc12)NC(=O)[C@@H](CCC(=O)O)NC(=O)CNC(=O)[C@@H](CCCCN)NC(=O)[C@H](N)Cc1c[nH]c2ccccc12)C(=O)NCC(=O)N[C@H](CCCNC(=N)N)C(=O)NCCC(=O)NCCCC[C@H](NC(=O)CCNC(=O)[C@@H](CCCNC(=N)N)NC(=O)CNC(=O)[C@H](NC(=O)[C@@H](Cc1c[nH]c2ccccc12)NC(=O)[C@@H](CCC(=O)O)NC(=O)CNC(=O)[C@@H](CCCCN)NC(=O)[C@H](N)Cc1c[nH]c2ccccc12)[C@H](C)O)C(=O)NCCCC[C@H](NC(=O)[C@H](CCCCNC(=O)CCNC(=O)[C@@H](CCCNC(=N)N)NC(=O)CNC(=O)[C@H](NC(=O)[C@@H](Cc1c[nH]c2ccccc12)NC(=O)[C@@H](CCC(=O)O)NC(=O)CNC(=O)[C@@H](CCCCN)NC(=O)[C@H](N)Cc1c[nH]c2ccccc12)[C@H](C)O)NC(=O)CCNC(=O)[C@@H](CCCNC(=N)N)NC(=O)CNC(=O)[C@H](NC(=O)[C@@H](Cc1c[nH]c2ccccc12)NC(=O)[C@@H](CCC(=O)O)NC(=O)CNC(=O)[C@@H](CCCCN)NC(=O)[C@H](N)Cc1c[nH]c2ccccc12)[C@H](C)O)C(=O)N[C@@H](CS)C(=O)O` [RI-peptide] (HELM PEPTIDE1{[dW].[dK].G.[dE].[dW].[dT].G.[dR].[bAla].K.K.C}|PEPTIDE2{[dW].[dK].G.[dE].[dW].[dT].G.[dR].[bAla].K}|PEPTIDE3{[dW].[dK].G.[dE].[dW].[dT].G.[dR].[bAla]}|PEPTIDE4{[dW].[dK].G.[dE].[dW].[dT].G.[dR].[bAla]}$PEPTIDE1,PEPTIDE4,10:R3-9:R2|PEPTIDE1,PEPTIDE2,11:R3-10:R2|PEPTIDE2,PEPTIDE3,10:R3-9:R2$$$V2.0; N-terminus and C-terminus assumed): the “Toxicity in SH-SY5Y cells” value in data set [1] is given as “not toxic”.
As for [FFVLK]4, the “Y-maze % alternation, after vs before treatment” value in the data set with APPSWE/Tg2576 mice was “improved % alternation results after treatment”.
